Reference: patent publication US20190290759A1, “COMBINATION OF HDAC INHIBITOR AND ANTI-PD-L1 ANTIBODY FOR TREATMENT OF OVARIAN CANCER” (Syndax Pharmaceuticals, Inc., priority 2015, published 2019)

Columns and labels:
[1] = system: NCI-H460 lung carcinoma cells; test: Avelumab-mediated NK lysis with CD16 blocking; format: cell-based, human; details: NK cells pretreated 2 h with anti-CD16 blocking antibody 12 μg/mL; targets exposed to vorinostat or DMSO; avelumab 2 ng/mL
Description: (§1) NK lysis was performed in the presence of avelumab or isotype control (2 ng/mL).
NK cells were pretreated for 2 h with anti-CD16 blocking antibody (12 μg/mL) prior to being used as effectors.
(§2) Results are presented as mean±S.E.M. from 3 replicate wells, and are representative of 2-4 independent experiments. […] For CD16 blocking, NK cells were pretreated for 2 h with anti-CD16 blocking antibody prior to being used as effectors. Results are presented as mean±S.E.M. from 3 replicate wells, and are representative of 2-4 independent experiments.

[2] = system: human carcinoma cell lines; details: cited from earlier work
[3] = system: whole PBMCs or dendritic cells isolated from PBMCs; details: cited from earlier work
[4] = system: PD-L1 on DU 145 carcinoma cells; test: Cell-surface PD-L1 expression by flow cytometry, DU 145; format: cell-based, human; details: DU 145 (prostate), vorinostat 3 μM 5 h daily x4 days or entinostat 500 nM 72 h; for PD-L1 % Positive: DMSO controls 76.3 / 81.4; for PD-L1 MFI: DMSO controls 200 / 226
[5] = system: MICA/B on DU 145 carcinoma cells; test: Cell-surface MIC-A/B expression by flow cytometry, DU 145; format: cell-based, human; details: DU 145 (prostate); vorinostat 3 μM 5 h daily x4 days or entinostat 500 nM 72 h; DMSO controls 42.9 / 58.9
[6] = system: HLA-ABC on DU 145 carcinoma cells; test: Cell-surface HLA-ABC expression by flow cytometry, DU 145; format: cell-based, human; details: DU 145 (prostate), vorinostat 3 μM 5 h daily x4 days or entinostat 500 nM 72 h; for HLA-ABC % Positive: DMSO controls 100 / 100; for HLA-ABC MFI: DMSO controls 200 / 226
[7] = system: PD-L1 on PC-3 carcinoma cells; test: Cell-surface PD-L1 expression by flow cytometry, PC-3; format: cell-based, human; details: PC-3 (prostate), vorinostat 3 μM 5 h daily x4 days or entinostat 500 nM 72 h; for PD-L1 % Positive: DMSO controls 74.1 / 55.8; for PD-L1 MFI: DMSO controls 207 / 146
[8] = system: MICA/B on PC-3 carcinoma cells; test: Cell-surface MIC-A/B expression by flow cytometry, PC-3; format: cell-based, human; details: PC-3 (prostate); vorinostat 3 μM 5 h daily x4 days or entinostat 500 nM 72 h; DMSO controls 33.2 / 43.7
[9] = system: HLA-ABC on PC-3 carcinoma cells; test: Cell-surface HLA-ABC expression by flow cytometry, PC-3; format: cell-based, human; details: PC-3 (prostate), vorinostat 3 μM 5 h daily x4 days or entinostat 500 nM 72 h; for HLA-ABC % Positive: DMSO controls 99.8 / 99.9; for HLA-ABC MFI: DMSO controls 699 / 801
[10] = system: PD-L1 on NCI-H460 carcinoma cells; test: Cell-surface PD-L1 expression by flow cytometry, NCI-H460; format: cell-based, human; details: NCI-H460 (lung), vorinostat 3 μM 5 h daily x4 days or entinostat 500 nM 72 h; for PD-L1 % Positive: DMSO controls 68.0 / 89.5; for PD-L1 MFI: DMSO controls 199 / 492
[11] = system: MICA/B on NCI-H460 carcinoma cells; test: Cell-surface MIC-A/B expression by flow cytometry, NCI-H460; format: cell-based, human; details: NCI-H460 (lung); vorinostat 3 μM 5 h daily x4 days or entinostat 500 nM 72 h; DMSO controls 4.4 / 20.3
[12] = system: HLA-ABC on NCI-H460 carcinoma cells; test: Cell-surface HLA-ABC expression by flow cytometry, NCI-H460; format: cell-based, human; details: NCI-H460 (lung), vorinostat 3 μM 5 h daily x4 days or entinostat 500 nM 72 h; for HLA-ABC % Positive: DMSO controls 86.6 / 99.2; for HLA-ABC MFI: DMSO controls 371 / 822
[13] = system: MICA/B on NCI-H441 carcinoma cells; test: Cell-surface MIC-A/B expression by flow cytometry, NCI-H441; format: cell-based, human; details: NCI-H441 (lung); vorinostat 3 μM 5 h daily x4 days or entinostat 500 nM 72 h; DMSO controls 23.5 / 16.7
[14] = system: HLA-ABC on NCI-H441 carcinoma cells; test: Cell-surface HLA-ABC expression by flow cytometry, NCI-H441; format: cell-based, human; details: NCI-H441 (lung), vorinostat 3 μM 5 h daily x4 days or entinostat 500 nM 72 h; for HLA-ABC % Positive: DMSO controls 99.9 / 99.9; for HLA-ABC MFI: DMSO controls 1182 / 1232
[15] = system: PD-L1 on AsPC-1 carcinoma cells; test: Cell-surface PD-L1 expression by flow cytometry, AsPC-1; format: cell-based, human; details: AsPC-1 (pancreas), vorinostat 3 μM 5 h daily x4 days or entinostat 500 nM 72 h; for PD-L1 % Positive: DMSO controls 1.4 / 1.9; for PD-L1 MFI: DMSO controls 87.5 / 91.4
[16] = system: MICA/B on AsPC-1 carcinoma cells; test: Cell-surface MIC-A/B expression by flow cytometry, AsPC-1; format: cell-based, human; details: AsPC-1 (pancreas); vorinostat 3 μM 5 h daily x4 days or entinostat 500 nM 72 h; DMSO controls 1.9 / 1.4
[17] = system: HLA-ABC on AsPC-1 carcinoma cells; test: Cell-surface HLA-ABC expression by flow cytometry, AsPC-1; format: cell-based, human; details: AsPC-1 (pancreas), vorinostat 3 μM 5 h daily x4 days or entinostat 500 nM 72 h; for HLA-ABC % Positive: DMSO controls 98.5 / 99.1; for HLA-ABC MFI: DMSO controls 625 / 670
[18] = system: PD-L1 in lung and prostate carcinoma xenografts (NCI-H460, PC-3, DU 145); test: Human xenografts, PD-L1 immunofluorescence; format: in vivo, nu/nu mice; details: vorinostat 150 mg/kg p.o. 4 daily doses, excised 24 h after last dose; entinostat 20 mg/kg p.o. single dose 72 h before excision; vs DMSO
Description: Female nu/nu mice were implanted with NCI-H460 (lung) or PC-3 (prostate) carcinoma cells. […] Frozen specimens were examined for cell-surface expression of PD-L1 by immunofluorescence using antihuman PD-L1 (clone SP142) and goat anti-rabbit AF594, and counterstained with DAPI-containing mounting medium.
Tumors were excised 24 h after the last dose. […] Frozen sections were examined for cell-surface expression of human PD-L1 by immunofluorescence. Confocal images are shown at 20× magnification and are representative of 3 animals/treatment. Relative PD-L1 expression levels were calculated using ImageJ software by normalizing the intensity values to their respective DMSO treated controls.

in vitro = details: human, PC-3 prostate carcinoma cells
[19] = system: PD-L1 on NCI-H441 carcinoma cells; test: Cell-surface PD-L1 expression by flow cytometry, NCI-H441; details: NCI-H441 (lung); vorinostat 3 μM 5 h daily x4 days or entinostat 500 nM 72 h; DMSO controls 958 / 1031
[20] = system: human lung and prostate carcinoma cells (DU 145, PC-3, NCI-H460, NCI-H441); test: Avelumab-mediated ADCC, 4 h 111In release assay with NK effectors; format: cell-based; details: cells pre-exposed to vorinostat 3 μM (5 h daily x4 days) or entinostat 500 nM (72 h) vs DMSO; avelumab 2 ng/mL; NK effectors E:T=30:1
Description: as §1, §2

[21] = in vivo; cited from earlier work
histone acetylation = details: following the administration of entinostat; cited from earlier work
[22] = system: host immune suppressor cells; details: preclinical models; cited from earlier work

| Compound | PD-L1 % Positive [4] | PD-L1 MFI [4] | MIC-A/B % Positive [5] | HLA-ABC % Positive [6] | HLA-ABC MFI [6] | PD-L1 % Positive [7] | PD-L1 MFI [7] | MIC-A/B % Positive [8] | HLA-ABC % Positive [9] | HLA-ABC MFI [9] | PD-L1 % Positive [10] | PD-L1 MFI [10] | MIC-A/B % Positive [11] | HLA-ABC % Positive [12] | HLA-ABC MFI [12] | MIC-A/B % Positive [13] | HLA-ABC % Positive [14] | HLA-ABC MFI [14] | PD-L1 % Positive [15] | PD-L1 MFI [15] | further results |
| --- | --- | --- | --- | --- | --- | --- | --- | --- | --- | --- | --- | --- | --- | --- | --- | --- | --- | --- | --- | --- | --- |
| avelumab: fully human anti-PD-L1 IgG1 antibody | – | – | – | – | – | – | – | – | – | – | – | – | – | – | – | – | – | – | – | – | Avelumab-mediated lysis of carcinoma cells after CD16 neutralization [1]: decreased by CD16 neutralization; human carcinoma cell lines in which ADCC was induced ([2]; PBMCs as effectors): 8 out of 18; cell lines with augmented lysis after IFN-γ pretreatment ([2]; tumor cell lines pretreated with IFN-γ): 4 out of 10; lysis of PBMCs or dendritic cells in NK-mediated ADCC assays [3]: Little or no lysis |
| O=C(CCCCCCC(=O)Nc1ccccc1)NO [Vorinostat] | 96.0% | 354 | 93.9% | 100% | 354 | 83.3% | 251 | 58.1% | 99.7% | 816 | 86.9% | 278 | 70.6% | 97.1% | 608 | 21.1% | 99.9% | 1284 | 1.4% | 90.4 | MIC-A/B % Positive [16]: 0.8%; HLA-ABC % Positive [17]: 99.2%; HLA-ABC MFI [17]: 806; PD-L1 expression in vivo in xenografts (immunofluorescence) [18]: enhance PD-L1 expression; viability (in vitro): 99%; PD-L1 MFI [19]: 1053 |
| Nc1ccccc1NC(=O)c1ccc(CNC(=O)OCc2cccnc2)cc1 [Entinostat, N-(2-aminophenyl)-4-[N-(pyridine-3-yl)methoxycarbonylamino-methyl]-benzamide] | 99.5% | 705 | 94.3% | 100% | 705 | 86.4% | 240 | 91.5% | 100% | 1144 | 90.2% | 507 | 69.8% | 94.3% | 547 | 46.2% | 99.9% | 1375 | 9.9% | 126 | MIC-A/B % Positive [16]: 6.5%; HLA-ABC % Positive [17]: 99.0%; HLA-ABC MFI [17]: 126; Sensitivity of carcinoma cells to ADCC mediated by avelumab (NK-cell lysis) [20]: significantly increased sensitivity; PD-L1 expression in vivo in xenografts (immunofluorescence) [18]: enhance PD-L1 expression; half-life [21]: about 100 hours; persistence of changes in histone acetylation (histone acetylation): persist for several weeks; effect on host immune suppressor cells [22]: reduce the number of, and inhibit the function of, host immune suppressor cells; PD-L1 MFI [19]: 1027 |
